Results from patent publication US20230151025A1, “SUBSTITUTED THIAZOLOPYRIDINES, SALTS THEREOF AND THEIR USE AS HERBICIDALLY ACTIVE SUBSTANCES” (Bayer Aktiengesellschaft, priority 2020, published 2023).

Tests used:
Assay type in all cases: in vivo
Setaria viridis (SETVI) [1] = assay: Herbicidal pre-emergence action (A), 1280 g/ha; conditions: visual grading after ca. 3 weeks vs untreated controls
Outline: (§1)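 Pre-emergence soil-surface spray, 600 l/ha water, 0.5% additive, WP or EC formulation. Sandy loam, double sowing per pot, greenhouse under optimum growth. Visual % damage at ~3 wk vs untreated; 100% = plants died off.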

Veronica persica (VERPE) [2] = assay: Herbicidal pre-emergence action (A), 1280 g/ha; conditions: visual grading after ca. 3 weeks vs untreated controls
Outline: as §1

Poa annua (POAAN) [3] = assay: Herbicidal pre-emergence action (A), 1280 g/ha; conditions: visual grading after ca. 3 weeks vs untreated controls, 100% = plants have died off, 0% = as control plants
Outline: as §1

[4] = system: Matricaria inodora (MATIN); assay: Herbicidal pre-emergence action (A), 1280 g/ha; conditions: visual grading after ca. 3 weeks vs untreated controls
Outline: as §1

Lolium rigidum (LOLRI) [5] = assay: Herbicidal pre-emergence action (A), 1280 g/ha; conditions: visual grading after ca. 3 weeks vs untreated controls, 100% = plants have died off, 0% = as control plants
Outline: as §1

[6] = system: Amaranthus retroflexus (AMARE); assay: Herbicidal pre-emergence action (A), 1280 g/ha; conditions: visual grading after ca. 3 weeks vs untreated controls
Outline: as §1

[7] = system: Digitaria sanguinalis (DIGSA); assay: Herbicidal pre-emergence action (A), 1280 g/ha; conditions: visual grading after ca. 3 weeks vs untreated controls, 100% = plants have died off, 0% = as control plants
Outline: as §1

[8] = system: Echinochloa crus-galli (ECHCG); assay: Herbicidal pre-emergence action (A), 1280 g/ha; conditions: visual grading after ca. 3 weeks vs untreated controls, 100% = plants have died off, 0% = as control plants
Outline: as §1

[9] = system: Kochia scoparia (KCHSC; Bassia scoparia); assay: Herbicidal pre-emergence action (A), 1280 g/ha; conditions: visual grading after ca. 3 weeks vs untreated controls
Outline: as §1

Stellaria media (STEME) [10] = assay: Herbicidal pre-emergence action (A), 1280 g/ha; conditions: visual grading after ca. 3 weeks vs untreated controls
Outline: as §1

[11] = system: Abutilon theophrasti (ABUTH); assay: Herbicidal pre-emergence action (A), 1280 g/ha; conditions: visual grading after ca. 3 weeks vs untreated controls, 100% = plants have died off, 0% = as control plants
Outline: as §1

[12] = system: Alopecurus myosuroides (ALOMY); assay: Herbicidal pre-emergence action (A), 1280 g/ha; conditions: visual grading after ca. 3 weeks vs untreated controls, 100% = plants have died off, 0% = as control plants
Outline: as §1

Setaria viridis (SETVI) [13] = assay: Herbicidal pre-emergence action (C), 320 g/ha; conditions: ca. 3 weeks
Outline: (§2)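 Sandy loam pots, seeds covered with soil → WP/EC compound sprayed on soil surface (aq., +0.5% additive, 600 l/ha) → greenhouse, optimum growth → visual herbicidal effect (%) at ca. 3 wk vs untreated.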

Veronica persica (VERPE) [14] = assay: Herbicidal pre-emergence action (C), 320 g/ha; conditions: ca. 3 weeks
Outline: as §2

[15] = system: Polygonum convolvulus (POLCO); assay: Herbicidal pre-emergence action (C), 320 g/ha; conditions: ca. 3 weeks
Outline: as §2

Lolium rigidum (LOLRI) [16] = assay: Herbicidal pre-emergence action (C), 320 g/ha; conditions: ca. 3 weeks
Outline: as §2

[17] = system: Amaranthus retroflexus (AMARE); assay: Herbicidal pre-emergence action (C), 320 g/ha; conditions: ca. 3 weeks
Outline: as §2

[18] = system: Alopecurus myosuroides (ALOMY); assay: Herbicidal pre-emergence action (C), 320 g/ha; conditions: ca. 3 weeks
Outline: as §2

Veronica persica (VERPE) [19] = assay: Herbicidal post-emergence action (B), 1280 g/ha
Outline: (§3)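 Percent activity is a visual score taken about 3 weeks after treatment, relative to untreated plants, where 100% means the plants died and 0% means no difference from controls. Plants were sprayed on green parts at the one-leaf stage with an aqueous suspension or emulsion containing 0.5% additive at 600 L/ha.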

Poa annua (POAAN) [20] = assay: Herbicidal post-emergence action (B), 1280 g/ha; conditions: rated visually after about 3 weeks vs untreated controls
Outline: as §3

[21] = system: Amaranthus retroflexus (AMARE); assay: Herbicidal post-emergence action (B), 1280 g/ha; conditions: rated visually after about 3 weeks vs untreated controls
Outline: as §3

[22] = system: Kochia scoparia (KCHSC; Bassia scoparia); assay: Herbicidal post-emergence action (B), 1280 g/ha
Outline: as §3

Stellaria media (STEME) [23] = assay: Herbicidal post-emergence action (B), 1280 g/ha
Outline: as §3

[24] = system: Alopecurus myosuroides (ALOMY); assay: Herbicidal post-emergence action (B), 1280 g/ha; conditions: rated visually after about 3 weeks vs untreated controls
Outline: as §3

[25] = system: Digitaria sanguinalis (DIGSA); assay: Herbicidal pre-emergence action (C), 320 g/ha; conditions: ca. 3 weeks
Excerpt: Seeds of mono- and dicotyledonous weed plants and crop plants were sown, in plastic or organic planting pots, in sandy loam and covered with soil. The compounds according to the invention, formulated in the form of wettable powders (WP) or as emulsifiable concentrates (EC), were applied to the surface of the covering soil as aqueous suspension or emulsion, with the addition of 0.5% of an additive, at an application rate of 600 l of water/ha (converted).
Following treatment, the pots were placed in a greenhouse and kept under optimum growth conditions for the test plants. The visual grading of the damage to the test plants was carried out after ca. 3 weeks in comparison to untreated controls (herbicidal effect in percent (%): 100% effect=plants have died off, 0% effect=as control plants).
Tables C1 to C13 below show the effects of selected compounds of the general formula (I) according to table 1 on various harmful plants and an application rate corresponding to 320 g/ha obtained by the experimental procedure mentioned above.

Veronica persica (VERPE) [26] = assay: Herbicidal post-emergence action (D), 320 g/ha; conditions: ca. 3 weeks
Excerpt: (§4) ABUTH: Abutilon theophrasti AGSTE: Agrostis tenuis ALOMY: Alopecurus myosuroides AMARE Amaranthus retroflexus DIGSA: Digitaria sanguinalis ECHCG: Echinochloa crus-galli KCHSC: Kochia scoparia LOLRI: Lolium rigidum MATIN: Matricaria inodora POAAN: Poa annua POLCO: Polygonum convolvulus SETVI: Setaria viridis STEME: Stellaria media VERPE: Veronica persica VIOTR: Viola tricolor
(§5) Seeds of mono- and dicotyledonous weed plants and crop plants were sown, in plastic or organic planting pots, in sandy loam, covered with soil and grown in a greenhouse under controlled growth conditions. 2 to 3 weeks after sowing, the test plants were sprayed in the single-leaf stage. The compounds according to the invention, formulated in form of wettable powders (WP) or as emulsifiable concentrates (EC), were sprayed onto the green plant parts as aqueous suspension or emulsion, with the addition of 0.5% of an additive, at an application rate of 600 l of water/ha (converted). The test plants were placed in the greenhouse for ca. 3 weeks under optimum growth conditions, and then the effect of the preparations was assessed visually in comparison with untreated controls (herbicidal effect in percent (%): 100% effect=plants have died off, 0% effect=as control plants).
(§6) Tables D1 to D13 below show the effects of selected compounds of the general formula (I) according to table 1 on various harmful plants and an application rate corresponding to 320 g/ha obtained by the experimental procedure mentioned above.

[27] = system: Amaranthus retroflexus (AMARE); assay: Herbicidal post-emergence action (D), 320 g/ha; conditions: ca. 3 weeks
Excerpt: as §4, §5, §6

[28] = system: Alopecurus myosuroides (ALOMY); assay: Herbicidal post-emergence action (D), 320 g/ha; conditions: ca. 3 weeks
Excerpt: as §4, §5, §6

[29] = system: Echinochloa crus-galli (ECHCG); assay: Herbicidal pre-emergence action (C), 320 g/ha; conditions: ca. 3 weeks
Outline: as §2

Setaria viridis (SETVI) [30] = assay: Herbicidal post-emergence action (B), 1280 g/ha; conditions: rated visually after about 3 weeks vs untreated controls
Outline: as §3

Lolium rigidum (LOLRI) [31] = assay: Herbicidal post-emergence action (B), 1280 g/ha; conditions: one-leaf stage, rated after about 3 weeks vs untreated controls, 100% activity = the plants have died, 0% = like control plants
Outline: as §3

[32] = system: Echinochloa crus-galli (ECHCG); assay: Herbicidal post-emergence action (B), 1280 g/ha; conditions: rated visually after about 3 weeks vs untreated controls
Outline: as §3

[33] = system: Abutilon theophrasti (ABUTH); assay: Herbicidal post-emergence action (B), 1280 g/ha; conditions: rated visually after about 3 weeks vs untreated controls
Outline: as §3

[34] = system: Matricaria inodora (MATIN); assay: Herbicidal post-emergence action (B), 1280 g/ha; conditions: rated visually after about 3 weeks vs untreated controls
Outline: as §3

[35] = system: Digitaria sanguinalis (DIGSA); assay: Herbicidal post-emergence action (B), 1280 g/ha; conditions: rated visually after about 3 weeks vs untreated controls
Outline: as §3

Compound | herbicidal effect SETVI (Setaria viridis (SETVI) [1]) | herbicidal effect VERPE (Veronica persica (VERPE) [2]) | POAAN, herbicidal effect in percent (%) (Poa annua (POAAN) [3]) | herbicidal effect MATIN [4] | LOLRI, herbicidal effect in percent (%) (Lolium rigidum (LOLRI) [5]) | herbicidal effect AMARE [6] | DIGSA, herbicidal effect in percent (%) [7] | ECHCG, herbicidal effect in percent (%) [8] | herbicidal effect KCHSC [9] | herbicidal effect STEME (Stellaria media (STEME) [10]) | ALOMY, herbicidal effect in percent (%) [12] | herbicidal effect SETVI (Setaria viridis (SETVI) [13]) | herbicidal effect LOLRI (Lolium rigidum (LOLRI) [16]) | herbicidal effect AMARE [17] | herbicidal effect VERPE (Veronica persica (VERPE) [19]) | herbicidal activity POAAN (Poa annua (POAAN) [20]) | herbicidal activity AMARE [21] | herbicidal effect KCHSC [22] | herbicidal effect STEME (Stellaria media (STEME) [23]) | herbicidal activity ALOMY [24] | also measured
Cc1cc2scnc2nc1C12CCCCC1O2 (stereo not drawn) [Example I-151] | 100% | 90% | 100% | 90% | 100% | 100% | 100% | 100% | 100% | 100% | 100% | 100% | 90% | 90% | 100% | 100% | 100% | 100% | 100% | 100% | ABUTH, herbicidal effect in percent (%) [11]: 90%; herbicidal effect VERPE (Veronica persica (VERPE) [14]): 90%; herbicidal effect POLCO [15]: 80%; herbicidal effect ALOMY [18]: 100%; herbicidal effect DIGSA [25]: 100%; herbicidal effect VERPE (Veronica persica (VERPE) [26]): 80%; herbicidal effect AMARE [27]: 80%; herbicidal effect ALOMY [28]: 80%
Cc1ccccc1-c1ccc2scnc2n1 [Example I-105] | 100% |  | 100% | 100% | 100% | 90% | 100% | 100% | 100% | 100% |  |  |  |  |  | 100% | 100% |  | 100% |  | ABUTH, herbicidal effect in percent (%) [11]: 90%; herbicidal effect ECHCG [29]: 90%; herbicidal activity SETVI (Setaria viridis (SETVI) [30]): 90%; LOLRI, activity rated visually (%) (Lolium rigidum (LOLRI) [31]): 100%; herbicidal activity ECHCG [32]: 100%; herbicidal activity ABUTH [33]: 90%
Cc1ccsc1-c1nc2ncsc2cc1Br [Example I-132] | 100% | 100% | 100% | 90% | 100% | 100% | 100% | 100% | 100% | 90% | 100% | 100% | 100% | 90% | 100% | 90% | 90% | 90% | 100% | 100% | herbicidal effect ECHCG [29]: 100%; herbicidal activity SETVI (Setaria viridis (SETVI) [30]): 90%; herbicidal activity MATIN [34]: 90%; LOLRI, activity rated visually (%) (Lolium rigidum (LOLRI) [31]): 100%; herbicidal activity DIGSA [35]: 90%; herbicidal activity ECHCG [32]: 100%; herbicidal activity ABUTH [33]: 90%
Clc1ccccc1-c1nc2ncsc2cc1Cl [Example I-069] | 100% | 90% | 100% | 90% | 90% |  | 100% | 100% | 90% | 90% | 100% | 100% | 100% | 90% | 100% | 100% | 90% | 90% | 100% | 100% | herbicidal effect VERPE (Veronica persica (VERPE) [14]): 90%; herbicidal effect ECHCG [29]: 100%; herbicidal effect ALOMY [18]: 100%; herbicidal activity SETVI (Setaria viridis (SETVI) [30]): 90%; LOLRI, activity rated visually (%) (Lolium rigidum (LOLRI) [31]): 90%; herbicidal activity ECHCG [32]: 100%; herbicidal effect DIGSA [25]: 100%; herbicidal effect VERPE (Veronica persica (VERPE) [26]): 90%; herbicidal effect AMARE [27]: 80%; herbicidal effect ALOMY [28]: 90%
Cc1cccc(F)c1-c1nc2ncsc2cc1Cl [Example I-013] | 100% | 90% | 100% | 90% | 100% | 90% | 100% | 100% | 100% | 100% | 100% | 100% | 100% | 90% | 100% | 90% | 100% | 100% | 100% | 100% | ABUTH, herbicidal effect in percent (%) [11]: 90%; herbicidal effect VERPE (Veronica persica (VERPE) [14]): 80%; herbicidal effect POLCO [15]: 80%; herbicidal effect ECHCG [29]: 100%; herbicidal effect ALOMY [18]: 100%; LOLRI, activity rated visually (%) (Lolium rigidum (LOLRI) [31]): 90%; herbicidal activity ECHCG [32]: 100%; herbicidal effect VERPE (Veronica persica (VERPE) [26]): 80%; herbicidal effect AMARE [27]: 80%; herbicidal effect ALOMY [28]: 80%
